Measurements from PMC12172326 (Journal of Biomedical Science, 2025).
Blank lines part the entries; values can stand above or below the compound they belong to.

Key:
[1] = ex vivo stability in mouse plasma; assay type: in vitro ADME; conditions: 100 μg/ml, room temperature, 0-180 min
Description: (§1) An ex vivo evaluation of drug stability was conducted in mouse and human plasma samples (WuXi AppTec, Shanghai, China). […] Samples were, thereafter, incubated at room temperature for 0, 15, 30, 60, 120, and 180 min before immediate drug extraction. […] Extraction was performed by adding ethyl acetate containing the internal standard (donepezil—known to undergo first-pass hepatic metabolism) to the spiked sample (100 μL), vortexed for 1 min, and centrifuged at 13,000 rpm, 4 °C for 10 min. The supernatant was used for LC–MS/MS analysis.
(§2) LC–MS/MS analysis was performed with a Vanquish Flex UHPLC (Thermo Scientific) and a Orbitrap Exploris 240 mass spectrometer (Thermo Scientific). Samples were separated on a C18 UHPLC column (100 mm × 2.1 mm, 3 μm; Thermo Scientific). The mobile phase A for LC separation was 0.1% formic acid and the mobile phase B was 0.1% formic acid in methanol. The chromatography gradient was designed for a linear increase from 5% B in 1 min, 5% B to 95% B in 8 min, 95% B in 3 min, and 5% B in 3 min. The flow rate was maintained at 0.3 mL/min. Mass spectra were acquired using the data-dependent Top 4 MS2 (ddMS2) method with a mass scan (100–1000 m/z) and 120,000 MS resolution.

[2] = ex vivo stability in human plasma; assay type: in vitro ADME; conditions: 100 μg/ml, room temperature, 0-180 min
Description: as §1, §2

[3] = cited from earlier work
p-glycoprotein = system: p-glycoprotein; parameters: method as in PMID 21825263; conditions: cited from earlier work
SALL4 = SALL4 degradation, Western blot in Tera-1 cells; assay type: cell-based, human; conditions: 4 h, 0.1 to 10 μM, SALL4/GAPDH, read-out: IC50 to lower SALL4 protein expression
Description: (§3) This cell line was obtained from the Korean Cell Line Bank (catalog no. 30105; Seoul, Korea), grown in DMEM (supplemented with 10% FBS, penicillin 100 U/mL and streptomycin 100 μg/mL, and maintained at 37 °C and 5% CO2). […] These were grown in RPMI media supplemented with 10% FBS, penicillin 100 U/mL, and streptomycin […], and maintained at 37 °C and 5% CO2. MM.1S cells were treated with drug (0.1 to 10 μM) for 4 h, and their cell lysates were prepared for Western blot analysis, as described previously.
(§4) For Western blot analysis, total proteins were extracted using RIPA buffer (Thermo Fisher Scientific, Waltham, MA) containing Halt Protease Inhibitor Cocktail (Thermo Fisher Scientific). Thereafter, proteins were separated by gel electrophoresis and then transferred to polyvinylidene difluoride (PVDF) membranes (Thermo Fisher Scientific), as detailed previously. The following primary antibodies were used: (i) anti-SALL4 antibody (catalog no. ab29112; 1:1000; Abcam, UK); (ii) anti-Aiolos antibody (catalog no. 15103; 1:1000; Cell Signaling Technology, Danvers, MA, USA); and (iii) anti-GAPDH antibody (catalog no. ab8245; 1:5000; Abcam, Cambridge, UK). […] Antigen–antibody complexes were detected using enhanced chemiluminescence (Thermo Fisher Scientific, iBright CL1500).

Aiolos = Aiolos degradation, Western blot in MM.1S cells; assay type: cell-based, human; conditions: 4 h, 0.1 to 10 μM, Aiolos/GAPDH, read-out: IC50 to lower Aiolos protein expression
Description: as §3, §4

ex vivo stability in mouse plasma [1]: rapidly disappears
ex vivo stability in human plasma [2]: rapidly disappears
SMILES: Nc1cccc2c1C(=S)N(C1CCC(=S)NC1=O)C2=O (stereo not drawn) [3,6′-DTP, 3,6′-dithiopomalidomide, reference compound]

SMILES: Nc1cccc2c1CN(C1CCC(=O)NC1=O)C2=O (stereo not drawn) [Lenalidomide]
CSF/plasma ratio [3]: 0.11
substrate for the efflux transporter p-glycoprotein (p-glycoprotein): substrate

IC50 (SALL4): 40 nM
IC50 (Aiolos): 60 nM
SMILES: Nc1cccc2c1C(=O)N(C1CCC(=O)NC1=O)C2=O (stereo not drawn) [Pom, Pomalidomide]
